Measured values as given in ChEMBL document CHEMBL2176881, “Development of N-[4-[6-(isopropylamino)pyrimidin-4-yl]-1,3-thiazol-2-yl]-N-methyl-4-[11C]methylbenzamide for positron emission tomography imaging of metabotropic glutamate 1 receptor in monkey brain” (J Med Chem, 2012).

Experiments:
[1] = Drug uptake in monkey thalamus at 185 to 220 MBq, iv after 20 mins by PET analysis; format: ADME, organism-based, Macaca mulatta; settings: rhesus monkey, in vivo
Heart [2] = test: Biodistribution in ddY mouse heart at 4.8 MBq/0.1 mL after 30 mins by gamma counting; format: ADME, organism-based; settings: in vivo, 0.5 h
Lung [3] = test: Biodistribution in ddY mouse lung at 4.8 MBq/0.1 mL after 30 mins by gamma counting; format: ADME, organism-based; settings: in vivo, 0.5 h
Heart [4] = test: Biodistribution in ddY mouse heart at 4.8 MBq/0.1 mL after 5 mins by gamma counting; format: ADME, organism-based; settings: in vivo
Lung [5] = test: Biodistribution in ddY mouse lung at 4.8 MBq/0.1 mL after 60 mins by gamma counting; format: ADME, organism-based; settings: in vivo, 1 h
Brain [6] = test: Drug uptake in monkey brain at 185 to 220 MBq, iv after 10 to 60 mins by PET analysis in presence of unlabeled 4-(6-chloropyrimidin-4-yl)-N-methylthiazol-2-amine; format: ADME, organism-based, Macaca mulatta; settings: rhesus monkey, in vivo
Pancreas [7] = test: Biodistribution in ddY mouse pancreas at 4.8 MBq/0.1 mL after 30 mins by gamma countingeas; format: ADME, organism-based; settings: in vivo, 0.5 h
Muscle tissue [8] = test: Biodistribution in ddY mouse muscle at 4.8 MBq/0.1 mL after 5 mins by gamma counting; format: ADME, organism-based; settings: in vivo
[9] = Metabolic stability in Sprague-Dawley brain assessed as unchanged drug level at 37 MBq/0.1 mL, iv after 5 mins; format: ADME, organism-based; settings: rat, read-out: Stability
Mus musculus [10] = organism: Mus musculus; test: Biodistribution in ddY mouse large intestine at 4.8 MBq/0.1 mL after 90 mins by gamma counting; format: ADME, organism-based; settings: in vivo, 1.5 h
[11] = Drug uptake in monkey cingulate cortex assessed as distribution volume ratio at 185 to 220 MBq, iv after 10 to 90 mins by PET analysis; format: ADME, organism-based, Macaca mulatta; settings: rhesus monkey, in vivo
Blood [12] = test: Biodistribution in ddY mouse blood at 4.8 MBq/0.1 mL after 15 mins by gamma counting; format: ADME, organism-based; settings: in vivo, 0.25 h
Hippocampus = test: Drug uptake in monkey hippocampus assessed as distribution volume ratio at 185 to 220 MBq, iv after 10 to 90 mins by PET analysis; format: ADME, organism-based, Macaca mulatta; settings: rhesus monkey, in vivo
Brain [13] = test: Biodistribution in ddY mouse brain at 4.8 MBq/0.1 mL after 60 mins by gamma counting; format: ADME, organism-based; settings: in vivo, 1 h
[14] = Metabolic stability in monkey plasma assessed as unchanged drug level at 185 MBq/0.1 mL, iv after 5 mins; format: ADME, organism-based, Macaca mulatta; settings: rhesus monkey, read-out: Stability
Lung [15] = test: Biodistribution in ddY mouse lung at 4.8 MBq/0.1 mL after 1 min by gamma counting; format: ADME, organism-based; settings: in vivo
Lung [16] = test: Biodistribution in ddY mouse lung at 4.8 MBq/0.1 mL after 90 mins by gamma counting; format: ADME, organism-based; settings: in vivo, 1.5 h
[17] = Metabolic stability in Sprague-Dawley plasma assessed as unchanged drug level at 37 MBq/0.1 mL, iv after 15 mins; format: ADME, organism-based; settings: rat, read-out: Stability
Heart [18] = test: Biodistribution in ddY mouse heart at 4.8 MBq/0.1 mL after 60 mins by gamma counting; format: ADME, organism-based; settings: in vivo, 1 h
Liver [19] = test: Biodistribution in ddY mouse liver at 4.8 MBq/0.1 mL after 5 mins by gamma counting; format: ADME, organism-based; settings: in vivo
Mus musculus [20] = organism: Mus musculus; test: Biodistribution in ddY mouse large intestine at 4.8 MBq/0.1 mL after 30 mins by gamma counting; format: ADME, organism-based; settings: in vivo, 0.5 h
Liver [21] = test: Biodistribution in ddY mouse liver at 4.8 MBq/0.1 mL after 60 mins by gamma counting; format: ADME, organism-based; settings: in vivo, 1 h
[22] = Metabolic stability in monkey plasma assessed as unchanged drug level at 185 MBq/0.1 mL, iv after 15 mins; format: ADME, organism-based, Macaca mulatta; settings: rhesus monkey, read-out: Stability
Liver [23] = test: Biodistribution in ddY mouse liver at 4.8 MBq/0.1 mL after 15 mins by gamma counting; format: ADME, organism-based; settings: in vivo, 0.25 h
Liver [24] = test: Biodistribution in ddY mouse liver at 4.8 MBq/0.1 mL after 90 mins by gamma counting; format: ADME, organism-based; settings: in vivo, 1.5 h
Mus musculus [25] = organism: Mus musculus; test: Biodistribution in ddY mouse testis at 4.8 MBq/0.1 mL after 5 mins by gamma counting; format: ADME, organism-based; settings: in vivo
Blood [26] = test: Biodistribution in ddY mouse blood at 4.8 MBq/0.1 mL after 30 mins by gamma counting; format: ADME, organism-based; settings: in vivo, 0.5 h
Liver [27] = test: Biodistribution in ddY mouse liver at 4.8 MBq/0.1 mL after 1 min by gamma counting; format: ADME, organism-based; settings: in vivo
[28] = Drug uptake in monkey pons at 185 to 220 MBq, iv after 10 mins by PET analysis; format: ADME, organism-based, Macaca mulatta; settings: rhesus monkey, in vivo
[29] = Drug uptake in monkey pons at 185 to 220 MBq, iv after 10 to 60 mins by PET analysis; format: ADME, organism-based, Macaca mulatta; settings: rhesus monkey, in vivo
Mus musculus [30] = organism: Mus musculus; test: Biodistribution in ddY mouse testis at 4.8 MBq/0.1 mL after 1 min by gamma counting; format: ADME, organism-based; settings: in vivo
Brain [31] = test: Biodistribution in ddY mouse brain at 4.8 MBq/0.1 mL after 30 mins by gamma counting; format: ADME, organism-based; settings: in vivo, 0.5 h
[32] = Metabolic stability in monkey plasma assessed as unchanged drug level at 185 MBq/0.1 mL, iv after 60 mins; format: ADME, organism-based, Macaca mulatta; settings: rhesus monkey, read-out: Stability
Mus musculus [33] = organism: Mus musculus; test: Biodistribution in ddY mouse small intestine at 4.8 MBq/0.1 mL after 1 min by gamma counting; format: ADME, organism-based; settings: in vivo
[34] = Drug uptake in monkey thalamus assessed as distribution volume ratio at 185 to 220 MBq, iv after 10 to 90 mins by PET analysis; format: ADME, organism-based, Macaca mulatta; settings: rhesus monkey, in vivo
Mus musculus [35] = organism: Mus musculus; test: Biodistribution in ddY mouse testis at 4.8 MBq/0.1 mL after 60 mins by gamma counting; format: ADME, organism-based; settings: in vivo, 1 h
Kidney = test: Biodistribution in ddY mouse kidney at 4.8 MBq/0.1 mL after 5 mins by gamma counting; format: ADME, organism-based; settings: in vivo
[36] = Metabolic stability in Sprague-Dawley plasma assessed as unchanged drug level at 37 MBq/0.1 mL, iv after 5 mins; format: ADME, organism-based; settings: rat, read-out: Stability
[37] = Drug uptake in monkey cerebellum at 185 to 220 MBq, iv after 10 to 60 mins by PET analysis; format: ADME, organism-based, Macaca mulatta; settings: rhesus monkey, in vivo
Muscle tissue [38] = test: Biodistribution in ddY mouse muscle at 4.8 MBq/0.1 mL after 30 mins by gamma counting; format: ADME, organism-based; settings: in vivo, 0.5 h
Muscle tissue [39] = test: Biodistribution in ddY mouse muscle at 4.8 MBq/0.1 mL after 60 mins by gamma counting; format: ADME, organism-based; settings: in vivo, 1 h
Pancreas [40] = test: Biodistribution in ddY mouse pancreas at 4.8 MBq/0.1 mL after 1 min by gamma countingeas; format: ADME, organism-based; settings: in vivo
[41] = Drug uptake in monkey caudate at 185 to 220 MBq, iv after 10 mins by PET analysis; format: ADME, organism-based, Macaca mulatta, Caudate nucleus; settings: rhesus monkey, in vivo
Mus musculus [42] = organism: Mus musculus; test: Biodistribution in ddY mouse large intestine at 4.8 MBq/0.1 mL after 60 mins by gamma counting; format: ADME, organism-based; settings: in vivo, 1 h
[43] = Metabolic stability in monkey plasma assessed as unchanged drug level at 185 MBq/0.1 mL, iv after 30 mins; format: ADME, organism-based, Macaca mulatta; settings: rhesus monkey, read-out: Stability
Brain [44] = test: Drug uptake in monkey brain at 185 to 220 MBq, iv after 10 to 60 mins by PET analysis in presence of unlabeled N-[4-[6-(Isopropylamino)pyrimidin-4-yl]-1,3-thiazol-2-yl]- N,4-dimethylbenzamide; format: ADME, organism-based, Macaca mulatta; settings: rhesus monkey, in vivo
[45] = Drug uptake in monkey cingulate cortex at 185 to 220 MBq, iv after 10 to 60 mins by PET analysis; format: ADME, organism-based, Macaca mulatta; settings: rhesus monkey, in vivo
Mus musculus [46] = organism: Mus musculus; test: Biodistribution in ddY mouse small intestine at 4.8 MBq/0.1 mL after 15 mins by gamma counting; format: ADME, organism-based; settings: in vivo, 0.25 h

## CC(C)Nc1cc(-c2csc(N(C)C(=O)c3ccc([14CH3])cc3)n2)ncn1
[1]
  SUV: 0.8
Heart [2]
  Drug uptake: 0.09 % ID/g
Lung [3]
  Drug uptake: 0.31 % ID/g
Heart [4]
  Drug uptake: 1.28 % ID/g
Lung [5]
  Drug uptake: 0.2 % ID/g
Brain [6]
  Drug uptake: Not Active
Pancreas [7]
  Drug uptake: 0.06 % ID/g
Muscle tissue [8]
  Drug uptake: 0.96 % ID/g
[9]
  remaining at 5 min: 94%
Mus musculus [10]
  Drug uptake: 7.02 % ID/g
[11]
  Ratio: 2.6
Blood [12]
  Drug uptake: 0.37 % ID/g
Hippocampus
  Ratio: 1.8
Brain [13]
  Drug uptake: 1.04 % ID/g
[14]
  remaining at 5 min: 70.2%
Lung [15]
  Drug uptake: 5.48 % ID/g
Lung [16]
  Drug uptake: 0.12 % ID/g
[17]
  remaining at 0.25 h: 47.6%
Heart [18]
  Drug uptake: 0.06 % ID/g
Liver [19]
  Drug uptake: 11.38 % ID/g
Mus musculus [20]
  Drug uptake: 2.32 % ID/g
Liver [21]
  Drug uptake: 0.51 % ID/g
[22]
  remaining at 0.25 h: 43.1%
Liver [23]
  Drug uptake: 4.89 % ID/g
Liver [24]
  Drug uptake: 0.3 % ID/g
Mus musculus [25]
  Drug uptake: 0.63 % ID/g
Blood [26]
  Drug uptake: 0.14 % ID/g
Liver [27]
  Drug uptake: 11.47 % ID/g
[28]
  Drug uptake: Active
[29]
  Drug uptake: Active
Mus musculus [30]
  Drug uptake: 1.07 % ID/g
Brain [31]
  Drug uptake: 1.59 % ID/g
[32]
  remaining at 1 h: 28.4%
Mus musculus [33]
  Drug uptake: 10.07 % ID/g
[34]
  Ratio: 2
Mus musculus [35]
  Drug uptake: 0.13 % ID/g
Kidney
  Drug uptake: 4.41 % ID/g
[36]
  remaining at 5 min: 67.9%
[37]
  Drug uptake: Active
Muscle tissue [38]
  Drug uptake: 0.13 % ID/g
Muscle tissue [39]
  Drug uptake: 0.07 % ID/g
Pancreas [40]
  Drug uptake: 4.48 % ID/g
[41]
  Drug uptake: Active
Mus musculus [42]
  Drug uptake: 1.98 % ID/g
[43]
  remaining at 0.5 h: 35.8%
Brain [44]
  Drug uptake: Not Active
[45]
  Drug uptake: Active
Mus musculus [46]
  Drug uptake: 41.52 % ID/g
